From ChEMBL document CHEMBL1129550, “Synthesis and cyclic GMP phosphodiesterase inhibitory activity of a series of 6-phenylpyrazolo[3,4-d]pyrimidones” (J Med Chem, 1996) come the findings set out here.

Assay [1] has as its target cGMP-specific 3',5'-cyclic phosphodiesterase (Rattus norvegicus, UniProt O54735). The assay is described as follows: Compound was tested for inhibition of stimulation of rat aortic smooth muscle cells (RSMC). The assay is classed as functional.
Assay [2] deals with T1, cGMP-specific 3',5'-cyclic phosphodiesterase (Homo sapiens, UniProt O76074). The assay is described as follows: Inhibition of Phosphodiesterase 5 from human.
For assay [3], the target named is T1, cGMP-specific 3',5'-cyclic phosphodiesterase. The experiment in a line: Inhibition of Phosphodiesterase 5 from human at dose 10 uM.

Usually EC50 stands for the concentration giving half of the maximal effect. Higher therefore signals a need for much substance. What is called IC50 is the concentration needed to halve the response being measured. As usually defined, the inhibition is the share of the control response that was lost under treatment.

Compound `CCCOc1ccc(N)cc1-c1nc2c(c(C)nn2C)c(=O)[nH]1` gave an EC50 in assay [1] of 300 nM. In assay [2], this compound showed an IC50 of 10 nM.

`CCCOc1ccc(Nc2nnc(N)[nH]2)cc1-c1nc2c(c(C)nn2C)c(=O)[nH]1`: the EC50 in assay [1] is more than 10000 nM. For the same compound, the IC50 in assay [2] was determined as 5 nM.

`CCCOc1ccccc1-c1nc2onc(C)c2c(=O)[nH]1` showed an EC50 in assay [1] of more than 10000 nM. Also, half-maximal inhibition in assay [2] (IC50) was put at 100 nM.

`CCCOc1ccc(-c2csc(-c3cccnc3)n2)cc1-c1nc2c(c(C)nn2CC)c(=O)[nH]1` returned an EC50 in assay [1] of less than 100 nM. The compound also displayed an IC50 in assay [2] of 2 nM.

In the case of `CCCOc1ccccc1-c1nc(O)c2sccc2n1`, in assay [1], the EC50 amounted to 1000 nM. The same compound registered an IC50 in assay [2] of 50 nM.

`CCCOc1ccccc1-c1nc(O)c2c[nH]nc2n1` returned a concentration for a half-maximal effect (EC50) in assay [1] of more than 10000 nM. Inhibition in assay [2] was half-maximal at 150 nM (IC50).

Compound `CCCOc1ccccc1-c1nc2cnccc2c(=O)[nH]1` had an EC50 in assay [1] of 2000 nM. In assay [2], this compound displayed an IC50 of 70 nM.

In turn, `CCCOc1ccccc1-c1nc2c(c(C)nn2CC)c(=O)[nH]1` gave an EC50 in assay [1] of less than 100 nM. Besides, in assay [2], the IC50 amounted to 2 nM.

Turning to `CCCOc1ccc(-c2csc(C)n2)cc1-c1nc2c(c(C)nn2C)c(=O)[nH]1`, the EC50 in assay [1] stood at 200 nM. The compound also displayed an IC50 in assay [2] of 2.5 nM.

The compound `CCCOc1ccccc1-c1nc2c(c(C)nn2CC(F)(F)F)c(=O)[nH]1` registered an EC50 in assay [1] of 1500 nM. In assay [2], this compound yielded an IC50 of 7 nM.

`CCCOc1ccc(N(C)C)cc1-c1nc2c(c(C)nn2CC)c(=O)[nH]1`: the EC50 in assay [1] is 1500 nM. The IC50 in assay [2] was found to be 4 nM.

In turn, `CCCOc1ccc(NC(=O)NCC)cc1-c1nc2c(c(C)nn2C)c(=O)[nH]1` came in with an EC50 in assay [1] of 50 nM. The compound further had an IC50 in assay [2] of 3 nM.

As for `CCCOc1ccc(-c2n[nH]c(-c3ccccc3)n2)cc1-c1nc2c(c(C)nn2C)c(=O)[nH]1`, the EC50 in assay [1] was less than 100 nM. In assay [2], this compound showed an IC50 of 20 nM.

As for `CCCOc1ccc(NC(C)=O)cc1-c1nc2c(c(C)nn2CC)c(=O)[nH]1`, in assay [1], the EC50 is 30 nM. Moreover, in assay [2], the IC50 came to 2 nM.

On to `CCCOc1ccc([N+](=O)[O-])cc1-c1nc2c(c(C)nn2CC)c(=O)[nH]1`, for which it took 50 nM to reach a half-maximal effect in assay [1] (EC50). The compound also had an IC50 in assay [2] of 0.1 nM.

Turning to `CCCOc1ccc(NC(=O)CN2CCN(C)CC2)cc1-c1nc2c(c(C)nn2C)c(=O)[nH]1`, the EC50 in assay [1] was 400 nM. This compound also returned an IC50 in assay [2] of 3.5 nM.

In turn, `CCCOc1ccccc1-c1nc(O)c2scc(C)c2n1` registered an EC50 in assay [1] of 1500 nM. Moreover, in assay [2], the IC50 is 80 nM.

`CCCOc1ccc(NC(N)=O)cc1-c1nc2c(c(C)nn2C)c(=O)[nH]1` registered an EC50 in assay [1] of 900 nM. Moreover, the half-inhibitory concentration (IC50) in assay [2] turned out to be 2 nM.

`CCCOc1ccccc1-c1nc(O)c2c(C)snc2n1` had an EC50 in assay [1] of 1500 nM. The compound further displayed an IC50 in assay [2] of 30 nM.

In assay [1], `CCCOc1ccc(N(C)C)cc1-c1nc2c(c(C)nn2C)c(=O)[nH]1` gave an EC50 of 300 nM. Further, in assay [2], the IC50 was 5 nM.

`CCCOc1ccc(-c2csc(-c3ccccc3)n2)cc1-c1nc2c(c(C)nn2CC)c(=O)[nH]1` yielded an EC50 in assay [1] of 200 nM. The compound also gave an IC50 in assay [2] of 3 nM.

In assay [1], `CCCOc1ccc(N)cc1-c1nc2c(c(C)nn2CC)c(=O)[nH]1` yielded an EC50 of 20 nM. In assay [2], the IC50 was determined as 7 nM.

In the case of `CCCOc1ccc(NC(=O)c2ccc(F)cc2)cc1-c1nc2c(c(C)nn2C)c(=O)[nH]1`, the EC50 in assay [1] is less than 10 nM. The same compound gave an IC50 in assay [2] of 2 nM.

`CCCOc1ccc([N+](=O)[O-])cc1-c1nc2c(c(C)nn2C)c(=O)[nH]1` returned a 50% effective concentration (EC50) in assay [1] of 100 nM. Also, the IC50 in assay [2] worked out at 4 nM.

In turn, `CCCOc1ccc(-c2ccc(C)s2)cc1-c1nc2c(c(C)nn2C)c(=O)[nH]1` registered an EC50 in assay [1] of less than 100 nM. This compound had an IC50 in assay [2] of 4 nM.

For `CCCOc1ccccc1-c1nc2ncncc2c(=O)[nH]1`, in assay [1], the EC50 amounted to 7500 nM. For the same compound, inhibition in assay [2] was half-maximal at 300 nM (IC50).

In assay [1], `CCCOc1ccccc1-c1nc2c(c(C)nn2C)c(=O)[nH]1` displayed an EC50 of 200 nM.

In the case of `CCCOc1ccc(NC(=S)NCC)cc1-c1nc2c(c(C)nn2C)c(=O)[nH]1`, the EC50 in assay [1] is 60 nM. This compound showed an IC50 in assay [2] of 3 nM.

In assay [1], `CCCOc1ccc(NC(N)=S)cc1-c1nc2c(c(C)nn2C)c(=O)[nH]1` gave an EC50 of 1000 nM. In assay [2], this compound came in with an IC50 of 1 nM.

For `CCCOc1ccc(-c2cccs2)cc1-c1nc2c(c(C)nn2C)c(=O)[nH]1`, it took 300 nM to reach a half-maximal effect in assay [1] (EC50). The IC50 in assay [2] worked out at 5 nM.

Regarding `CCCOc1ccc(-c2n[nH]c(-c3ccccc3)n2)cc1-c1nc2c(c(C)nn2CC)c(=O)[nH]1`, the EC50 in assay [1] is less than 10 nM. For the same compound, in assay [2], the IC50 stood at 1.7 nM.

The compound `CCCOc1ccc(NC(=O)c2cccs2)cc1-c1nc2c(c(C)nn2C)c(=O)[nH]1` showed an EC50 in assay [1] of less than 10 nM. In assay [2], this compound returned an IC50 of 1.5 nM.

In the case of `CCCOc1ccccc1-c1nc(O)c2ccsc2n1`, in assay [1], a half-maximal response (EC50) required 2500 nM. The compound further had a 50% inhibitory concentration (IC50) in assay [2] of 100 nM.

`Cc1nn(C)c2nc(-c3ccccc3OC(C)C)[nH]c(=O)c12` registered an EC50 in assay [1] of 1000 nM. This compound returned an IC50 in assay [2] of 40 nM.

In assay [1], `CCCOc1ccc(NC(=S)NC(=O)OCC)cc1-c1nc2c(c(C)nn2C)c(=O)[nH]1` yielded an EC50 of 40 nM. For the same compound, in assay [2], it took 2 nM to reach half-maximal inhibition (IC50).

`CCCOc1ccccc1-c1nc2nc[nH]c2c(=O)[nH]1` yielded an EC50 in assay [1] of 2000 nM.

As to `CCCOc1ccc(-c2nc(C)cs2)cc1-c1nc2c(c(C)nn2C)c(=O)[nH]1`, the EC50 in assay [1] was determined as 450 nM. Half-maximal inhibition in assay [2] (IC50) required 2.5 nM.

Turning to `CCOc1ccccc1-c1nc2c(c(C)nn2C)c(=O)[nH]1`, the EC50 in assay [1] was determined as 2000 nM. Also, the half-maximal inhibitory concentration (IC50) in assay [2] was determined as 30 nM.

Take `CCCOc1ccc(-c2nccs2)cc1-c1nc2c(c(C)nn2C)c(=O)[nH]1`: the EC50 in assay [1] is less than 100 nM. In assay [2], this compound registered an IC50 of 3 nM.

On to `CCCOc1ccc(NS(C)(=O)=O)cc1-c1nc2c(c(C)nn2CC)c(=O)[nH]1`, for which, in assay [1], the EC50 is 200 nM. In addition, in assay [2], the IC50 is 4 nM.

`CCCOc1ccc(C(=O)CN2CCOCC2)cc1-c1nc2c(c(C)nn2C)c(=O)[nH]1`: in assay [1], the response was half-maximal at 300 nM (EC50). The compound further registered an IC50 in assay [2] of 4 nM.

The compound `CCCOc1ccc(NC(=O)OC)cc1-c1nc2c(c(C)nn2C)c(=O)[nH]1` registered an EC50 in assay [1] of 100 nM. In assay [2], this compound gave an IC50 of 2 nM.

With `CCCOc1ccc(NC(=O)Nc2ccc(F)cc2)cc1-c1nc2c(c(C)nn2C)c(=O)[nH]1`, a half-maximal response in assay [1] (EC50) required 40 nM. The compound further gave an IC50 in assay [2] of 0.2 nM.

With `CCCOc1ccc(NC(C)=O)cc1-c1nc2c(c(C)nn2C)c(=O)[nH]1`, the EC50 in assay [1] is 40 nM. The IC50 in assay [2] was 0.8 nM.

For the compound `CCCOc1ccccc1-c1nc2c(c(C)nn2C(C)(C)C)c(=O)[nH]1`, in assay [1], the EC50 was 200 nM. In assay [2], this compound had an IC50 of 20 nM.

`CCCOc1ccccc1-c1nc2c(c(C)nn2CCC)c(=O)[nH]1` showed an EC50 in assay [1] of 150 nM. This compound displayed an IC50 in assay [2] of 1 nM.

Turning to `CCC[S+]([O-])c1ccccc1-c1nc2c(c(C)nn2C)c(=O)[nH]1` (stereo unspecified), in assay [3], the inhibition worked out at 59%.

Turning to `CCCOc1ccccc1-c1nc2ccncc2c(=O)[nH]1`, in assay [1], the 50% effective concentration (EC50) turned out to be 10000 nM. In assay [2], this compound came in with an IC50 of 50 nM.

The compound `CCCOc1ccc(-c2csc(-c3ccccc3)n2)cc1-c1nc2c(c(C)nn2C)c(=O)[nH]1` registered an EC50 in assay [1] of 200 nM. Further, the midpoint of inhibition in assay [2], the IC50, lay at 2.5 nM.

Regarding `CCCOc1ccccc1-c1nc2c(c(C)nn2Cc2ccccc2)c(=O)[nH]1`, the EC50 in assay [1] is 350 nM. The compound further returned an IC50 in assay [2] of 70 nM.

On to `CCCCn1nc(C)c2c(=O)[nH]c(-c3ccccc3OCCC)nc21`, for which the EC50 in assay [1] was determined as 900 nM. The compound further showed an IC50 in assay [2] of 6 nM.

In assay [1], `CCCOc1ccc(-c2csc(C)n2)cc1-c1nc2c(c(C)nn2CC)c(=O)[nH]1` registered an EC50 of less than 100 nM.

Take `CCCOc1ccc(NS(C)(=O)=O)cc1-c1nc2c(c(C)nn2C)c(=O)[nH]1`: a half-maximal effect in assay [1] (EC50) was put at 350 nM. The IC50 in assay [2] is 3 nM.

Take `CCCOc1ccccc1-c1nc(O)c2c(C)csc2n1`: the midpoint of the response in assay [1], the EC50, lay at 700 nM. In addition, it took 60 nM to reach half-maximal inhibition in assay [2] (IC50).

`CCCOc1ccc(-c2nc(C)cs2)cc1-c1nc2c(c(C)nn2CC)c(=O)[nH]1`: in assay [1], the EC50 is less than 100 nM. Also, it took 2 nM to reach half-maximal inhibition in assay [2] (IC50).
